Reference: patent US20110028445A1, “Urea derivatives of benzomorphanes and related scaffolds, medicaments containing such compounds and their use” (BOEHRINGER INGELHEIM INTERNATIONAL GMBH, priority 2008, published 2011)

Each compound was assayed against T1, 11β-HSD1 (Homo sapiens, UniProt P28845) (assay: In vitro inhibition of 11β-HSD1, HTRF detection of cortisol generated by human liver microsomes). Details: compound concentration 1 μM, 100% indicates no inhibition, zero or below zero indicates complete inhibition, cortisone 80 nM, 1 hour at 37° C., read-out: % CTL at 1 μM.
T1 construct: detecting cortisol generated from cortisterone by human liver microsomes; from tissue; host or cells: human liver microsomes
T1 sequence (P28845 whole entry): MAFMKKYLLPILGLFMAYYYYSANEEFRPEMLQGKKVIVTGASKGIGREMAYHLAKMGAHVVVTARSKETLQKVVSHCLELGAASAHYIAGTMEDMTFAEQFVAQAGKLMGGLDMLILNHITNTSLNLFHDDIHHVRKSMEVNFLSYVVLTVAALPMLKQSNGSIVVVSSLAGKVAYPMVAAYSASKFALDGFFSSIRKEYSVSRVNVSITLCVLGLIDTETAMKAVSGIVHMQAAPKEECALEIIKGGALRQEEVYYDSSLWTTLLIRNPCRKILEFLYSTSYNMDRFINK
Type: biochemical
Protocol: Briefly, compounds were incubated for 1 hour at 37° C. in Tris buffer (20 mM tris, 5 mM EDTA, pH 6.0) containing NADPH (200 μM) and cortisone (80 nM). Cortisol generated in the reaction is then detected with a competitive immunoassay, involving two HTRF conjugates: cortisol linked to XL665 and anti-cortisol antibody labeled with Europium cryptate. The incubation period for detection reaction was typically 2 hours. The amount of cortisol is determined by reading the time-resolved fluorescence of the wells (Ex 320/75 nm; Em 615/8.5 nm and 665/7.5 nm). The ratio of the two emission signals is then calculated (Em665*10000/Em615). […] Each assay also contained a calibration curve with cortisol to transform the fluorescent data into cortisol concentrations. Percent inhibition of each compound was determined relative to the carbenoxolone signal and IC50 curves were generated.
The % CTL values of some example compounds at a concentration of 1 μM are provided in the following Table 2 wherein 100% indicates no inhibition and a value of zero or below zero indicates complete inhibition. The measurement of % CTL is described hereinbefore.
For `CC1(C)[C@H]2Cc3c(O)cccc3[C@]1(C)CCN2C(=O)N1CCc2cc(O)ccc2C1` [Example 44], the remaining activity at 1 µM was -4%. `CC1(C)[C@H]2Cc3ccccc3[C@]1(C)CCN2C(=O)N1[C@@H]2CC[C@H]1C[C@@H](O)C2` [Example 74] gave a remaining activity at 1 µM of -17%. Compound `CC1(C)[C@H]2Cc3ccccc3[C@]1(C)CCN2C(=O)N1CCC[C@H](CO)C1` [Example 64] has a remaining activity at 1 µM of -33%. `CC1(C)[C@H]2Cc3ccccc3[C@]1(C)CCN2C(=O)N1CCC[C@@H](CO)C1` [Example 71, [(R)-3-Hydroxymethyl-piperidin-1-yl]-[(2R,6S)-6,11,11-trimethyl-1,2,5,6-tetrahydro-4H-2,6-methano-benzo[d]azocin-3-yl)-methanone] was tested, and the remaining activity at 1 µM was -18%. With `CC1(C)[C@H]2Cc3c(O)cccc3[C@]1(C)CCN2C(=O)N1CCCC(C(=O)Nc2ccccc2)C1` (some centres unmarked) [Example 42] the remaining activity at 1 µM was 32%. For `CC1(C)[C@H]2Cc3c(ccc(C#N)c3O)[C@]1(C)CCN2C(=O)N1CCCCC1` [Example 35, (2R,6S)-10-Hydroxy-6,11,11-trimethyl-3-(piperidine-1-carbonyl)-1,2,3,4,5,6-hexahydro-2,6-methano-benzo[d]azocine-9-carbonitrile], the remaining activity at 1 µM was -30%. `CC1(C)[C@H]2Cc3ccccc3[C@]1(C)CCN2C(=O)N1CCCCC1` [Example 19] showed a remaining activity at 1 µM of -47%. `CC1(C)[C@H]2Cc3ccccc3[C@]1(C)CCN2C(=O)N1[C@@H]2CC[C@H]1C[C@H](O)C2` [Example 79, (exo-3-Hydroxy-8-aza-bicyclo[3.2.1]oct-8-yl)-[(2R,6S)-6,11,11-trimethyl-1,2,5,6-tetrahydro-4H-2,6-methano-benzo[d]azocin-3-yl]-methanone] gave a remaining activity at 1 µM of 13%. For `CCOC(=O)[C@H]1CCCN(C(=O)N2CC[C@@]3(C)c4ccccc4C[C@@H]2C3(C)C)C1` [Example 62], the remaining activity at 1 µM was 13%. Compound `CC1(C)[C@H]2Cc3c(O)cccc3[C@]1(C)CCN2C(=O)N1CCC(O)CC1` [Example 13] has a remaining activity at 1 µM of -53%. For `CC1(O)CCN(C(=O)N2CC[C@@]3(C)c4ccccc4C[C@@H]2C3(C)C)CC1` [Example 54], the remaining activity at 1 µM was -25%. In the case of `CC1(C)[C@H]2Cc3c(O)cccc3[C@]1(C)CCN2C(=O)N1CCC(O)C1` (some centres unmarked) [Example 29], the remaining activity at 1 µM is reported as 30%. For `CC1(C)[C@H]2Cc3c(O)cccc3[C@]1(C)CCN2C(=O)N1CCc2ccsc2C1` [Example 7, (4,7-Dihydro-5H-thieno[2,3-c]pyridin-6-yl)-[(2R,6S)-10-hydroxy-6,11,11-trimethyl-1,2,5,6-tetrahydro-4H-2,6-methano-benzo[d]azocin-3-yl]-methanone], the remaining activity at 1 µM was -32%. For `CC1(C)[C@H]2Cc3c(O)cccc3[C@]1(C)CCN2C(=O)N1CCCC(C(N)=O)C1` (some centres unmarked) [Example 41], the remaining activity at 1 µM was -56%. `CC1(C)[C@H]2Cc3c(O)cccc3[C@]1(C)CCN2C(=O)N1CCC(O)(CO)CC1` [Example 37] gave a remaining activity at 1 µM of -7%. Compound `CC1(C)[C@H]2Cc3c(O)cccc3[C@]1(C)CCN2C(=O)N1CCC(CO)C1` (some centres unmarked) [Example 22] has a remaining activity at 1 µM of -4%. For `CCOC(=O)C1CCCN(C(=O)N2CC[C@@]3(C)c4ccccc4C[C@@H]2C3(C)C)C1` (some centres unmarked) [Example 63], the remaining activity at 1 µM was 47%. With `CC1(C)[C@H]2Cc3ccccc3[C@]1(C)CCN2C(=O)N1CCOC[C@H]1c1ccccc1` [Example 67] the remaining activity at 1 µM was 71%. With `C[C@@H]1[C@H]2Cc3ccc(O)cc3[C@]1(C)CCN2C(=O)N1CCCCC1` [Example 20] the remaining activity at 1 µM was -39%. Compound `CC1(C)[C@H]2Cc3ccccc3[C@]1(C)CCN2C(=O)N1CCOCC1c1ccccc1` (some centres unmarked) [Example 68] has a remaining activity at 1 µM of 87%. For `CC1(C)[C@H]2Cc3ccccc3[C@]1(C)CCN2C(=O)N1[C@@H]2CC[C@H]1C[C@@](O)(C(F)(F)F)C2` [Example 80], the remaining activity at 1 µM was 70%. For `CC1(C)[C@H]2Cc3ccccc3[C@]1(C)CCN2C(=O)N1CCC(CCO)(c2ccccc2)C1` (some centres unmarked) [Example 77], the remaining activity at 1 µM was 30%. `CC1(C)[C@H]2Cc3c(O)cccc3[C@]1(C)CCN2C(=O)N1CCOCC1` [Example 3] was tested, and the remaining activity at 1 µM was 84%. `CC1(C)[C@H]2Cc3c(O)cccc3[C@]1(C)CCN2C(=O)N1Cc2ccccc2C1` [Example 10] gave a remaining activity at 1 µM of 53%. For `COc1cccc2c1C[C@H]1N(C(=O)N3CCCCC3)CC[C@]2(C)C1(C)C` [Example 31, [(2R,6S)-10-Methoxy-6,11,11-trimethyl-1,2,5,6-tetrahydro-4H-2,6-methano-benzo[d]azocin-3-yl]-piperidin-1-yl-methanone], the remaining activity at 1 µM was -6%. With `CC1(C)[C@H]2Cc3ccccc3[C@]1(C)CCN2C(=O)N1[C@@H]2CC[C@H]1CC(=O)C2` [Example 76] the remaining activity at 1 µM was -10%. In the case of `CC1(C)[C@H]2Cc3ccccc3[C@]1(C)CCN2C(=O)N1CCC(c2ccccc2)C1` (some centres unmarked) [Example 61], the remaining activity at 1 µM is reported as 7%. `CC1(C)[C@H]2Cc3c(O)cccc3[C@]1(C)CCN2C(=O)N1CCCC(c2nc3ccccc3[nH]2)C1` (some centres unmarked) [Example 52] was tested, and the remaining activity at 1 µM was 27%. Work on `CC1(C)[C@H]2Cc3c(O)cccc3[C@]1(C)CCN2C(=O)N1CCCC1CO` (some centres unmarked) [Example 28] yielded a remaining activity at 1 µM of 36%. `CC1(C)[C@H]2Cc3c(O)cccc3[C@]1(C)CCN2C(=O)N1CCCC1` [Example 2] gave a remaining activity at 1 µM of 18%. For `Cc1ccc2c(c1)CCCN2C(=O)N1CC[C@@]2(C)c3cccc(O)c3C[C@@H]1C2(C)C` [Example 48], the remaining activity at 1 µM was -18%. For `CC1(C)[C@H]2Cc3c(O)cccc3[C@]1(C)CCN2C(=O)N1CCn2cnnc2C1` [Example 47], the remaining activity at 1 µM was 94%. In the case of `CC1(C)[C@H]2Cc3c(OCC#N)cccc3[C@]1(C)CCN2C(=O)N1CCCCC1` [Example 33], the remaining activity at 1 µM is reported as 23%. `CC1(C)[C@H]2Cc3c(O)cccc3[C@]1(C)CCN2C(=O)N1CCc2cc(O)ccc21` [Example 53] was tested, and the remaining activity at 1 µM was 7%. With `CC1(C)[C@H]2Cc3c(O)cccc3[C@]1(C)CCN2C(=O)N1CCc2cccc(O)c2C1` [Example 46, (8-Hydroxy-3,4-dihydro-1H-isoquinolin-2-yl)-[(2R,6S)-10-hydroxy-6,11,11-trimethyl-1,2,5,6-tetrahydro-4H-2,6-methano-benzo[d]azocin-3-yl]-methanone] the remaining activity at 1 µM was -10%. In the case of `CC1(C)[C@H]2Cc3c(O)cccc3[C@]1(C)CCN2C(=O)N1CCCC(CO)C1` (some centres unmarked) [Example 30], the remaining activity at 1 µM is reported as -54%. Work on `CC1(C)[C@H]2Cc3ccccc3[C@]1(C)CCN2C(=O)N1[C@@H]2CC[C@H]1C[C@](O)(C(F)(F)F)C2` [Example 73] yielded a remaining activity at 1 µM of -6%. `CC1(C)[C@H]2Cc3c(O)cccc3[C@]1(C)CCN2C(=O)N1CCCc2cc(NC(=O)C(F)(F)F)ccc21` [Example 49] gave a remaining activity at 1 µM of 23%. For `CC1(C)[C@H]2Cc3c(O)cccc3[C@]1(C)CCN2C(=O)N1[C@@H]2CC[C@H]1C[C@@H](c1ccc(F)cc1)C2` [Example 17], the remaining activity at 1 µM was -43%. In the case of `CC1(C)[C@H]2Cc3c(O)cccc3[C@]1(C)CCN2C(=O)N1CCCC(c2nnn[nH]2)C1` (some centres unmarked) [Example 59], the remaining activity at 1 µM is reported as 70%. For `COC1CCN(C(=O)N2CC[C@@]3(C)c4cccc(O)c4C[C@@H]2C3(C)C)CC1` [Example 12], the remaining activity at 1 µM was -39%. `CC1(C)[C@H]2Cc3c(O)cccc3[C@]1(C)CCN2C(=O)N1CCCC(O)C1` (some centres unmarked) [Example 23] showed a remaining activity at 1 µM of -9%. `CC1(C)[C@H]2Cc3c(O)cccc3[C@]1(C)CCN2C(=O)N1CCc2nc[nH]c2C1` [Example 15] gave a remaining activity at 1 µM of 14%. `CC1(C)[C@H]2Cc3c(O)cccc3[C@]1(C)CCN2C(=O)N1CCCC2(CCNC2=O)C1` (some centres unmarked) [Example 55] showed a remaining activity at 1 µM of -31%. For `CC1(C)[C@H]2Cc3ccccc3[C@]1(C)CCN2C(=O)N1CCCC2(CCCNC2=O)C1` (some centres unmarked) [Example 60], the remaining activity at 1 µM was -19%. For `CC1(C)[C@H]2Cc3c(O)cccc3[C@]1(C)CCN2C(=O)N1C2CCCC1CC(O)C2` (some centres unmarked) [Example 40], the remaining activity at 1 µM was -17%. `CC(C)(O)CC1(c2ccccc2)CCN(C(=O)N2CC[C@@]3(C)c4ccccc4C[C@@H]2C3(C)C)C1` (some centres unmarked) [Example 78] gave a remaining activity at 1 µM of 61%. For `CC1(C)[C@H]2Cc3c(O)cccc3[C@]1(C)CCN2C(=O)N1CCc2sccc2C1` [Example 8], the remaining activity at 1 µM was -27%. Work on `CC1(C)[C@H]2Cc3c(O)cccc3[C@]1(C)CCN2C(=O)N1CCc2ccccc21` [Example 18] yielded a remaining activity at 1 µM of -8%. `CC1(O)CCN(C(=O)N2CC[C@@]3(C)c4cccc(O)c4C[C@@H]2C3(C)C)CC1` [Example 27] was tested, and the remaining activity at 1 µM was -41%. `CC1(C)[C@H]2Cc3ccccc3[C@]1(C)CCN2C(=O)N1CCC(O)CC1` [Example 70] gave a remaining activity at 1 µM of -15%. `CC1(C)[C@H]2Cc3c(O)cccc3[C@]1(C)CCN2C(=O)N1C2CCC1CC(O)C2` (some centres unmarked) [Example 14] showed a remaining activity at 1 µM of -46%. `CC(C)(O)[C@H]1CCCN(C(=O)N2CC[C@@]3(C)c4ccccc4C[C@@H]2C3(C)C)C1` [Example 69] was tested, and the remaining activity at 1 µM was 6%. For `CC(C)(O)[C@@H]1CCCN(C(=O)N2CC[C@@]3(C)c4ccccc4C[C@@H]2C3(C)C)C1` [Example 66, [(R)-3-(1-Hydroxy-1-methyl-ethyl)-piperidin-1-yl]-[(2R,6S)-6,11,11-trimethyl-1,2,5,6-tetrahydro-4H-2,6-methano-benzo[d]azocin-3-yl]-methanone], the remaining activity at 1 µM was -16%. In the case of `CC1(C)[C@H]2Cc3ccccc3[C@]1(C)CCN2C(=O)N1CCC(O)(C(F)(F)F)CC1` [Example 72], the remaining activity at 1 µM is reported as -11%. `CC1(C)[C@H]2Cc3c(O)cccc3[C@]1(C)CCN2C(=O)N1CCCC(O)CC1` (some centres unmarked) [Example 26] showed a remaining activity at 1 µM of -41%.
